Results from patent publication US20090299044A1 (priority 2006, published 2009).
Bridge positions count the residues as written; N and C are the ends. Square brackets hold non-standard residues; d marks the D form. Peptide text beside a SMILES is read from it. 1Nal = N[C@@H](Cc1cccc2ccccc12)C(=O)O

Columns and labels:
human Kv1.3 (CHO) = target: T1, human Kv1.3 (CHO) (Homo sapiens, UniProt P22001); experiment: cell-based
T1 construct: expressed in transfected cells; host or cells: CHO

human Kv1.1 (HEK293) = target: T2, human Kv1.1 (HEK293) (Homo sapiens, UniProt Q09470); experiment: cell-based
T2 construct: expressed in transfected cells; host or cells: HEK293
T2 sequence (Q09470 whole entry): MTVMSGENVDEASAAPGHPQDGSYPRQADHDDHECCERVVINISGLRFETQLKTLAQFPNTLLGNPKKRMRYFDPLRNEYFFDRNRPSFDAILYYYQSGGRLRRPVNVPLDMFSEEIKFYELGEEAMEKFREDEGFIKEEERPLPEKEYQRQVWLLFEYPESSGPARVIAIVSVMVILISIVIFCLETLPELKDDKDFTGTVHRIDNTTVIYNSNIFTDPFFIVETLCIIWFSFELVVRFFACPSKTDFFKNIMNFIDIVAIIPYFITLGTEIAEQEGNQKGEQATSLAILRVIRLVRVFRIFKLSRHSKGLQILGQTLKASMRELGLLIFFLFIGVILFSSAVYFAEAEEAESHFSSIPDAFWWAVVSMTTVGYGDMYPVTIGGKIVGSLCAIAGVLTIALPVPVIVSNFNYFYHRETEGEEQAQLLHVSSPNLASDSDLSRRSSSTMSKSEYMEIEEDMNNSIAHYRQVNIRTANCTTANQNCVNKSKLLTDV

T1 sequence (P22001 whole entry): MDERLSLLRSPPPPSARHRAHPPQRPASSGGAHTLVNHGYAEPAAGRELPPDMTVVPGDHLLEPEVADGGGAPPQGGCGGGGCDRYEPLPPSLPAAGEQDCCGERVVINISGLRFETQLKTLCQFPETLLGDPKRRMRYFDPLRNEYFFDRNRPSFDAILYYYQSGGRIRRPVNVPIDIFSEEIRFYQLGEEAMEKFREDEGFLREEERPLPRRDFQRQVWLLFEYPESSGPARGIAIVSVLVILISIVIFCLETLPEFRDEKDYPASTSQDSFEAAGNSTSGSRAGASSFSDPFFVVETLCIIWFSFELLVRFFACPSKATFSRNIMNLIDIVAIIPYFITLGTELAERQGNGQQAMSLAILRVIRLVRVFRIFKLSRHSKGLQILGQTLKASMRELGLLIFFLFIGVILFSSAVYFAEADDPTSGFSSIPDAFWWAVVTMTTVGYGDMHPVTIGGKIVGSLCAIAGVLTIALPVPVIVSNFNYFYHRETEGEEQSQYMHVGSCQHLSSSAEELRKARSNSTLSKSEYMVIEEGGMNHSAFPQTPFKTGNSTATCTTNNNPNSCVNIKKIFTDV

Row | SMILES | IC50 (human Kv1.3 (CHO)) | IC50 (human Kv1.1 (HEK293))
1 | CC[C@H](C)[C@@H]1NC(=O)[C@H](CCCCN)NC(=O)[C@@H](NC(=O)[C@H](CCCCN)NC(=O)[C@@H](NC(=O)[C@H](CC(N)=O)NC(=O)[C@@H](NC(=O)[C@@H](NC(=O)[C@@H](NC(=O)CN)C(C)C)[C@@H](C)CC)[C@@H](C)CC)C(C)C)CSSC[C@@H]2NC(=O)[C@H](CCCCN)NC(=O)CNC(=O)[C@H](Cc3ccccc3)NC(=O)[C@H](CCCNC(=N)N)NC(=O)[C@H](CCSC)NC(=O)CNC(=O)[C@H](CCC(=O)O)NC(=O)[C@H](CCCCN)NC(=O)[C@H](CCCCN)NC(=O)[C@@H]3CSSC[C@@H](C(=O)N[C@H](C(=O)N4CCC[C@H]4C(=O)N[C@@H](CCCCN)C(=O)O)[C@@H](C)O)NC(=O)[C@H](Cc4c[nH]cn4)NC(=O)[C@H](CSSC[C@H](NC(=O)[C@H](CCC(N)=O)NC(=O)[C@H](CCCNC(=N)N)NC(=O)[C@H](CO)NC1=O)C(=O)N[C@@H](CC(C)C)C(=O)N[C@@H](CCC(=O)O)C(=O)N1CCC[C@H]1C(=O)N3)NC(=O)[C@H](CCCCN)NC(=O)CNC(=O)[C@H](CC(N)=O)NC(=O)[C@H](CCSC)NC2=O [A21E] (H-GVIINVKCKISRQCLEPCKKEGMRFGKCMNGKCHCTPK-OH; disulfide 8-28, 14-33, 18-35) | 0.00737 nM | < 0.00152 nM
2 | CC[C@H](C)[C@@H]1NC(=O)[C@H](CCCCN)NC(=O)[C@@H](NC(=O)[C@H](CCCCN)NC(=O)[C@@H](NC(=O)[C@H](CC(N)=O)NC(=O)[C@@H](NC(=O)[C@@H](NC(=O)[C@@H](NC(=O)CN)C(C)C)[C@@H](C)CC)[C@@H](C)CC)C(C)C)CSSC[C@@H]2NC(=O)[C@H](CCCCN)NC(=O)CNC(=O)[C@H](Cc3ccccc3)NC(=O)[C@H](CCCNC(=N)N)NC(=O)[C@H](CCSC)NC(=O)CNC(=O)[C@H](CCCNC(=N)N)NC(=O)[C@H](CCCCN)NC(=O)[C@H](CCCCN)NC(=O)[C@@H]3CSSC[C@@H](C(=O)N[C@H](C(=O)N4CCC[C@H]4C(=O)N[C@@H](CCCCN)C(=O)O)[C@@H](C)O)NC(=O)[C@H](Cc4c[nH]cn4)NC(=O)[C@H](CSSC[C@H](NC(=O)[C@H](CCC(N)=O)NC(=O)[C@H](CCCNC(=N)N)NC(=O)[C@H](CO)NC1=O)C(=O)N[C@@H](CC(C)C)C(=O)N[C@@H](CCC(=O)O)C(=O)N1CCC[C@H]1C(=O)N3)NC(=O)[C@H](CCCCN)NC(=O)CNC(=O)[C@H](CC(N)=O)NC(=O)[C@H](CCSC)NC2=O [A21R] (H-GVIINVKCKISRQCLEPCKKRGMRFGKCMNGKCHCTPK-OH; disulfide 8-28, 14-33, 18-35) | 0.0149 nM | 0.00261 nM
3 | CC[C@H](C)[C@@H]1NC(=O)[C@H](CCCCN)NC(=O)[C@@H](NC(=O)[C@H](CCCCN)NC(=O)[C@@H](NC(=O)[C@H](CC(N)=O)NC(=O)[C@@H](NC(=O)[C@@H](NC(=O)[C@@H](NC(=O)CN)C(C)C)[C@@H](C)CC)[C@@H](C)CC)C(C)C)CSSC[C@@H]2NC(=O)[C@H](CCCCN)NC(=O)CNC(=O)[C@H](Cc3ccccc3)NC(=O)[C@H](CCCNC(=N)N)NC(=O)[C@H](CCSC)NC(=O)CNC(=O)[C@H](C)NC(=O)[C@H](CCCCN)NC(=O)[C@H](CCCCN)NC(=O)[C@@H]3CSSC[C@@H](C(=O)N[C@H](C(=O)N4CCC[C@H]4C(=O)N[C@@H](CCCCN)C(=O)O)[C@@H](C)O)NC(=O)[C@H](Cc4c[nH]cn4)NC(=O)[C@H](CSSC[C@H](NC(=O)[C@H](CCC(N)=O)NC(=O)[C@H](CCCNC(=N)N)NC(=O)[C@H](CO)NC1=O)C(=O)N[C@@H](CC(C)C)C(=O)N[C@@H](C)C(=O)N1CCC[C@H]1C(=O)N3)NC(=O)[C@H](CCCCN)NC(=O)CNC(=O)[C@H](CC(N)=O)NC(=O)[C@H](CCSC)NC2=O [E16A] (H-GVIINVKCKISRQCLAPCKKAGMRFGKCMNGKCHCTPK-OH; disulfide 8-28, 14-33, 18-35) | 0.0216 nM | 0.00687 nM
4 | CC[C@H](C)[C@@H]1NC(=O)[C@H](CCCCN)NC(=O)[C@@H](NC(=O)[C@H](CCCCN)NC(=O)[C@@H](NC(=O)[C@H](CC(N)=O)NC(=O)[C@@H](NC(=O)[C@@H](NC(=O)[C@@H](NC(=O)CN)C(C)C)[C@@H](C)CC)[C@@H](C)CC)C(C)C)CSSC[C@@H]2NC(=O)[C@H](CCCCN)NC(=O)CNC(=O)[C@H](Cc3ccccc3)NC(=O)[C@H](CCCNC(=N)N)NC(=O)[C@H](CCSC)NC(=O)CNC(=O)[C@H](C)NC(=O)[C@H](CCCCN)NC(=O)[C@H](CCCCN)NC(=O)[C@@H]3CSSC[C@@H](C(=O)N[C@H](C(=O)N4CCC[C@H]4C(=O)N[C@@H](CCCCN)C(=O)O)[C@@H](C)O)NC(=O)[C@H](Cc4c[nH]cn4)NC(=O)[C@H](CSSC[C@H](NC(=O)[C@H](CCC(N)=O)NC(=O)[C@H](CCCNC(=N)N)NC(=O)[C@H](CO)NC1=O)C(=O)N[C@@H](CC(C)C)C(=O)N[C@@H](Cc1cccc4ccccc14)C(=O)N1CCC[C@H]1C(=O)N3)NC(=O)[C@H](CCCCN)NC(=O)CNC(=O)[C@H](CC(N)=O)NC(=O)[C@H](CCSC)NC2=O [E16Nal] (H-GVIINVKCKISRQCL[1Nal]PCKKAGMRFGKCMNGKCHCTPK-OH; disulfide 8-28, 14-33, 18-35) | 0.00958 nM | < 0.00152 nM
5 | CC[C@H](C)[C@@H]1NC(=O)[C@H](CCCCN)NC(=O)[C@@H](NC(=O)[C@H](CCCCN)NC(=O)[C@@H](NC(=O)[C@H](CC(N)=O)NC(=O)[C@@H](NC(=O)[C@@H](NC(=O)[C@@H](NC(=O)CN)C(C)C)[C@@H](C)CC)[C@@H](C)CC)C(C)C)CSSC[C@@H]2NC(=O)[C@H](CCCCN)NC(=O)CNC(=O)[C@H](Cc3ccccc3)NC(=O)[C@H](CCCNC(=N)N)NC(=O)[C@H](CCSC)NC(=O)CNC(=O)[C@H](C)NC(=O)[C@H](CCCCN)NC(=O)[C@H](CCCCN)NC(=O)[C@@H]3CSSC[C@@H](C(=O)N[C@H](C(=O)N4CCC[C@H]4C(=O)N[C@@H](CCCCN)C(=O)O)[C@@H](C)O)NC(=O)[C@H](Cc4c[nH]cn4)NC(=O)[C@H](CSSC[C@H](NC(=O)[C@H](CCC(N)=O)NC(=O)[C@H](CCCNC(=N)N)NC(=O)[C@H](CO)NC1=O)C(=O)N[C@@H](CC(C)C)C(=O)N[C@@H](CCCNC(=N)N)C(=O)N1CCC[C@H]1C(=O)N3)NC(=O)[C@H](CCCCN)NC(=O)CNC(=O)[C@H](CC(N)=O)NC(=O)[C@H](CCSC)NC2=O [E16R] (H-GVIINVKCKISRQCLRPCKKAGMRFGKCMNGKCHCTPK-OH; disulfide 8-28, 14-33, 18-35) | 0.0104 nM | < 0.00152 nM
6 | CC[C@H](C)[C@@H]1NC(=O)[C@H](CCCCN)NC(=O)[C@@H](NC(=O)[C@H](CCCCN)NC(=O)[C@@H](NC(=O)[C@H](CC(N)=O)NC(=O)[C@@H](NC(=O)[C@@H](NC(=O)[C@@H](NC(=O)CN)C(C)C)[C@@H](C)CC)[C@@H](C)CC)C(C)C)CSSC[C@@H]2NC(=O)[C@H](CCCCN)NC(=O)CNC(=O)[C@H](C)NC(=O)[C@H](CCCNC(=N)N)NC(=O)[C@H](CCSC)NC(=O)CNC(=O)[C@H](C)NC(=O)[C@H](CCCCN)NC(=O)[C@H](CCCCN)NC(=O)[C@@H]3CSSC[C@@H](C(=O)N[C@H](C(=O)N4CCC[C@H]4C(=O)N[C@@H](CCCCN)C(=O)O)[C@@H](C)O)NC(=O)[C@H](Cc4c[nH]cn4)NC(=O)[C@H](CSSC[C@H](NC(=O)[C@H](CCC(N)=O)NC(=O)[C@H](CCCNC(=N)N)NC(=O)[C@H](CO)NC1=O)C(=O)N[C@@H](CC(C)C)C(=O)N[C@@H](CCC(=O)O)C(=O)N1CCC[C@H]1C(=O)N3)NC(=O)[C@H](CCCCN)NC(=O)CNC(=O)[C@H](CC(N)=O)NC(=O)[C@H](CCSC)NC2=O [F25A] (H-GVIINVKCKISRQCLEPCKKAGMRAGKCMNGKCHCTPK-OH; disulfide 8-28, 14-33, 18-35) | 1.49 nM | 0.0473 nM
7 | CC[C@H](C)[C@@H]1NC(=O)[C@H](CCCCN)NC(=O)[C@@H](NC(=O)[C@H](CCCCN)NC(=O)[C@@H](NC(=O)[C@H](CC(N)=O)NC(=O)[C@@H](NC(=O)[C@@H](NC(=O)[C@@H](NC(=O)CN)C(C)C)[C@@H](C)CC)[C@@H](C)CC)C(C)C)CSSC[C@@H]2NC(=O)[C@H](CCCCN)NC(=O)CNC(=O)[C@H](CCC(=O)O)NC(=O)[C@H](CCCNC(=N)N)NC(=O)[C@H](CCSC)NC(=O)CNC(=O)[C@H](C)NC(=O)[C@H](CCCCN)NC(=O)[C@H](CCCCN)NC(=O)[C@@H]3CSSC[C@@H](C(=O)N[C@H](C(=O)N4CCC[C@H]4C(=O)N[C@@H](CCCCN)C(=O)O)[C@@H](C)O)NC(=O)[C@H](Cc4c[nH]cn4)NC(=O)[C@H](CSSC[C@H](NC(=O)[C@H](CCC(N)=O)NC(=O)[C@H](CCCNC(=N)N)NC(=O)[C@H](CO)NC1=O)C(=O)N[C@@H](CC(C)C)C(=O)N[C@@H](CCC(=O)O)C(=O)N1CCC[C@H]1C(=O)N3)NC(=O)[C@H](CCCCN)NC(=O)CNC(=O)[C@H](CC(N)=O)NC(=O)[C@H](CCSC)NC2=O [F25E] (H-GVIINVKCKISRQCLEPCKKAGMREGKCMNGKCHCTPK-OH; disulfide 8-28, 14-33, 18-35) | > 3.33 nM | > 3.33 nM
8 | CC[C@H](C)[C@@H]1NC(=O)[C@H](CCCCN)NC(=O)[C@@H](NC(=O)[C@H](CCCCN)NC(=O)[C@@H](NC(=O)[C@H](CC(N)=O)NC(=O)[C@@H](NC(=O)[C@@H](NC(=O)[C@@H](NC(=O)CN)C(C)C)[C@@H](C)CC)[C@@H](C)CC)C(C)C)CSSC[C@@H]2NC(=O)[C@H](CCCCN)NC(=O)CNC(=O)[C@H](Cc3cccc4ccccc34)NC(=O)[C@H](CCCNC(=N)N)NC(=O)[C@H](CCSC)NC(=O)CNC(=O)[C@H](C)NC(=O)[C@H](CCCCN)NC(=O)[C@H](CCCCN)NC(=O)[C@@H]3CSSC[C@@H](C(=O)N[C@H](C(=O)N4CCC[C@H]4C(=O)N[C@@H](CCCCN)C(=O)O)[C@@H](C)O)NC(=O)[C@H](Cc4c[nH]cn4)NC(=O)[C@H](CSSC[C@H](NC(=O)[C@H](CCC(N)=O)NC(=O)[C@H](CCCNC(=N)N)NC(=O)[C@H](CO)NC1=O)C(=O)N[C@@H](CC(C)C)C(=O)N[C@@H](CCC(=O)O)C(=O)N1CCC[C@H]1C(=O)N3)NC(=O)[C@H](CCCCN)NC(=O)CNC(=O)[C@H](CC(N)=O)NC(=O)[C@H](CCSC)NC2=O [F25Nal] (H-GVIINVKCKISRQCLEPCKKAGMR[1Nal]GKCMNGKCHCTPK-OH; disulfide 8-28, 14-33, 18-35) | 0.0286 nM | 0.0517 nM
